The text below walks through data of patent publication US5292531A, “Dermatologial external agent” (Shiseido Company Ltd., priority 1990, dated 1994).

Values after ≈ are worked out from the molar mass of the structure shown. Read-outs that look alike come from different tables or passages of the source.

Assay [1] concerns Propionibacterium avidum, ATCC 25577. As to the kind of experiment: Growth inhibitory band around filter paper disc (Test Example 2). The class given is cell-based. To be noted: 0.05 ml of 10% acetone solution on 8 mm disc, 37° C., 3 days, anaerobic. On the procedure:
Using an ABCM medium (Eikensha K. K.) as the antibacterial active medium, the medium was heated in an autoclave at a temperature of 115° C. for 15 minutes. A filter paper disc (8 mm.phi.) impregnated with 0.05 ml of 10% acetone solution of each sample was adhered to an agar plate to which Propionibacterium avidum, ATCC 25577 was previously inoculated and dispersed thereon, and anaerobically cultured at 37° C. for 3 days. The diameter of the transparent band (Propionibacterium avidum growth inhibitory band) formed around the filter paper upon completion of the culturing was measured, and the antibacterial power determined therefrom.

Assay [2] deals with Propionibacterium acnes standard strain (ATCC 11827). Briefly: Minimum growth inhibitory concentration (MIC), GAM agar medium pH 7.3±0.1 (Test Example 1). The format is cell-based. The method, then:
The growth inhibitory effects of tetrahydroabietic acid salts against Acne bacterium, which is a Gram-positive anaerobic bacterium were evaluated as follows.
Using a GAM agar medium produced by Nissui K. K. as the medium, after an adjustment of the pH of the medium to 7.3±0.1, a minimum growth inhibitory concentration (MIC) of sodium tetrahydroabietate and sodium salt of hydrogenated rosin, needed for a Propionibacterium acnes standard strain (ATCC 11827) was measured and evaluated.
As a Control, MIC's of substances generally known to have an antibacterial action (isopropylmethylphenol, berberine chloride, thioxolone, abietic acid) were also measured.

The mark [3] stands for this setting: Cutibacterium acnes, ATCC11827, GAM agar medium, pH 7.3±0.1, read-out: MIC.

In assay [1], `CC(C)C1CC[C@H]2C(CC[C@@H]3[C@]2(C)CCC[C@@]3(C)C(=O)[O-])C1.[Na+]` (stereo partly shown) [Sodium tetrahydroabietate] returned an Inhibitory band diameter of 17 mm. This compound returned an MIC in assay [2] (GAM agar medium, pH 7.3±0.1) of 5 ppm. Further, the “Antibacterial power compared with other antibacterial substances” value in assay [2] (Table 1, in words) is reported as “far stronger antibacterial power than other antibacterial substances”. In turn, `COc1ccc2cc3[n+](cc2c1OC)CCc1cc2c(cc1-3)OCO2` [Berberline chloride, berberine chloride] came in with an MIC in assay [2] (Cutibacterium acnes, ATCC11827, pH 7.3) of 100 µg/mL. `CC(C)[C@@H]1CC[C@H]2[C@@H](CC[C@@H]3[C@]2(C)CCC[C@@]3(C)C(=O)O)C1` [Tetrahydroabietic acid] yielded an Inhibitory band diameter in assay [1] of 18 mm. In assay [2] (GAM agar medium, pH 7.3±0.1), this compound gave an MIC of 3 ppm. With `CC(C)C1=CC2=CC[C@@H]3[C@](C)(CCC[C@@]3(C)C(=O)O)[C@H]2CC1` [Abietic acid], in assay [1] (Cutibacterium avidum, ATCC25577, 72 h, read-out: Inhibitory band diameter), the zone of inhibition at 10 % was found to be 15 mm. The MIC in assay [2] (setting [3]) stood at 20 µg/mL (≈ 66.1 µM). On to `Cc1cc(O)ccc1C(C)C` [Isopropylmethylphenol], for which the MIC in assay [2] (GAM agar medium, pH 7.3±0.1) worked out at 100 ppm. Consider `O=c1oc2cc(O)ccc2s1` [Thioxolone], for which the MIC in assay [2] (setting [3]) came out at 50 µg/mL (≈ 297 µM).
